Assay results published in US11046932B2, “Method of producing renal cells from differentiated cells” (priority 2016, dated 2021).

Assays:
[1] = test system: mouse embryonic fibroblasts (MEFs); experiment: Reprogramming efficiency: GFP-positive cells by flow cytometry in KSP-Cre mTOM/mGFP reporter MEFs; format: cell-based; conditions: added to culture medium of 4TF treated MEFs for 7 days: Vitamin C 50 μg/ml, CHIR99021 3 μM, Forskolin 10 μM, Valproic Acid 1 mM, 5-Azacytidine 2 μM
Procedure: Next, we expressed candidate transcription factors in isolated MEFs by lentiviral transduction and analyzed GFP reporter-expression by flow cytometry (FIG. 2a and FIG. 11a).
Tissue was minced with a scalpel and digested with 0.25% Trypsin-EDTA for 30 min at 37° C. Trypsinization was stopped by addition of MEF Medium (MEFM: Dulbecco's modified Eagle's medium (DMEM), 10% fetal bovine serum (FBS), 2 mM L-glutamine, penicillin/streptomycin). After resuspension the cells were centrifuged and the pellet was resuspended in MEFM and plated on gelatine-coated 6-well plates for 3 days until they reached confluency. […] MEFs, TTFs and human fibroblasts were frozen in liquid nitrogen and used without further passaging for reprogramming experiments. For efficiency improvement experiments the following substances were added to the cell culture medium for 7 days: Vitamin C (Sigma, 50 μg/ml); CHIR99021 (Sigma, 3 μM); Forskolin (FocusBiomolecules, 10 μM); Valproic Acid (Sigma, 1 mM); 5-Azacytidine (Sigma, 2 μM).
For the infection of MEFs, TTFs, HFoFs and HFeFs virus concentrate was diluted 1:100 (high viral titers) to 1:1000 (low viral titers) in MEFM containing 10 μg/ml Polybrene and cells were incubated for 12 h. Viral infection was repeated five to seven times. After cultivation in MEFM for 7 days, MEFs and TTFs were analyzed for GFP expression by flow cytometry.
For flow cytometry analyses, cells were harvested, resuspended in FACS buffer (PBS supplemented with 3% FBS and 5 mM EDTA), filtered through a 50 μm cell strainer and analyzed using the 13-color LCR Fortessa FACS analyzer (Becton Dickinson).

[2] = biological target: organic cation transporter 2 (Oct2) (Mus musculus, UniProt O70577); conditions: 6 μg/ml cisplatin and 1 mM cimetidine versus cisplatin alone
Procedure: Drug treated cells and untreated controls were stained with 1 μg/ml DAPI (Invitrogen, D1306) for 5 minutes and fluorescence was measured via flow cytometry using the 405 nm laser for excitation. Dead cells were identified by comparing emission of DAPI stained cell and unstained controls using a 450/50 nm band pass filter. For Kim-1 expression analysis MEFs and iRECs were treated with Gentamicin (1 mg/ml for 48 h), stained for Kim-1 (Miltenyi Biiotec, 130-106-024) and analyzed by flow cytometry. […] Cells were harvested and analyzed as described above. Experiments were performed in triplicates and repeated three times.

[3] = test system: iRECs; experiment: Kim-1 expression analysis by flow cytometry after drug treatment; format: cell-based, mouse; conditions: Gentamicin 1 mg/ml for 48 h
Procedure: (§1) Cells were harvested and analyzed as described above. Experiments were performed in triplicates and repeated three times.

[4] = test system: iRECs; experiment: Cytotoxicity assay (dead/apoptotic cells by DAPI flow cytometry) in iRECs versus MEFs; format: cell-based; conditions: Cisplatin 6 μg/ml 24 h; Tacrolimus 40 μM 24 h; Gentamicin 1 mg/ml 48 h
Procedure: as §1

Chain of organic cation transporter 2 (Oct2) (O70577 whole entry): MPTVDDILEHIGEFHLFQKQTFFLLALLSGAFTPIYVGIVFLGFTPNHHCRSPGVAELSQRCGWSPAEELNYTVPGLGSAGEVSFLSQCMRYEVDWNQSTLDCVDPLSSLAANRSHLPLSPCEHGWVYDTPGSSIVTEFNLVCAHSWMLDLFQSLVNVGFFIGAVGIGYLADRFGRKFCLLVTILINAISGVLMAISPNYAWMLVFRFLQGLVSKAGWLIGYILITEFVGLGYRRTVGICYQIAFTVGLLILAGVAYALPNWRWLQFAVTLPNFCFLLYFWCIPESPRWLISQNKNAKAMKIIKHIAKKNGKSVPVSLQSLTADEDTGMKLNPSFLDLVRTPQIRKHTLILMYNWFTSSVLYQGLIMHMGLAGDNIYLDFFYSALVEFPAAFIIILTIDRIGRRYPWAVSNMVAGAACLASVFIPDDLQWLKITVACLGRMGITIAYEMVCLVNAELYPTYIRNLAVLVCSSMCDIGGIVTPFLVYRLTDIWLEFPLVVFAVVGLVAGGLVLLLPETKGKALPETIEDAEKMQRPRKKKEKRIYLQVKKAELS

| Molecule | effect on the percentage of GFP-positive cells [1] | further results |
| --- | --- | --- |
| CCCC(CCC)C(=O)O [valproic acid] | did not have an effect |  |
| Cc1c[nH]c(-c2cnc(NCCNc3ccc(C#N)cn3)nc2-c2ccc(Cl)cc2Cl)n1 [CHIR99021] | did not have an effect |  |
| CN/C(=N/CCSCc1nc[nH]c1C)NC#N [Cimetidine] |  | cisplatin induced toxicity in iRECs [2]: decreased |
| Gentamicin |  | Kidney injury molecule 1 (KIM1) in iRECs [3]: markedly increased; rate of apoptosis in treated iRECs compared to MEFs [4]: significantly higher |
| Nc1ncn([C@@H]2O[C@H](CO)[C@@H](O)[C@H]2O)c(=O)n1 [5 azacytidine, 5-azacytidine] | did not have an effect |  |
| O=C1O[C@H]([C@@H](O)CO)C(O)=C1O [Vitamin C] | did not have an effect |  |
